Patent publication US7973218B2, “Methods and compositions for controlling weeds” (Pioneer Hi-Bred International, Inc., priority 2005, dated 2011)

What was measured:
[1] = system: GAT-HRA soybeans; experiment: Postemergence herbicide test on soybeans, % visual injury; assay type: in vivo, soybean; conditions: 35 g/ha
Description: (§1) Four replications were performed for each treatment.
(§2) When possible, containers were thinned to two uniform plants.

[2] = system: Wild Type soybeans (Jack); experiment: as above; assay type: in vivo, soybean; conditions: non-transgenic control soybeans; 35 g/ha
Description: as §1, §2

[3] = system: lead GAT7 soybean events; experiment: Field efficacy experiment JHM5G030, visual rating 7 and 14 days after treatment; assay type: in vivo; conditions: 7 DAS and 14 DAS; rimsulfuron 8.75 and 35.0 g/ha ai; Synchrony 35.03 and 140.11 g/ha ai; tribenuron 8.75 and 35.0 g/ha ai
Description: GAT round 7 (GAT7) transgenic events from construct PHP20163A were evaluated in 2004 for herbicide efficacy (JHM464TGATEFF) and yield potential (JHD4_GAT7 tests). […] 92M90 was selected as a STS variety to compare directly with the SAMS:ALS construct in the GAT7 events. Variety Jack was utilized as an untransformed negative control.
Selected lines were grown in experiment JHM5G030 in two replications of paired twelve foot rows, with eleven different treatments applied. Lines were blocked by event and treatment to provide side-by-side comparison of the eleven different spray treatments, with a 2 row border between each treatment to catch any spray drift. […] Lines were given a 100 (complete susceptibility, 100% damage) to 0 (complete tolerance, 0% damage) visual rating at 7 days after treatment and again at 14 days after treatment. Visual ratings were based upon overall degree of chlorosis, necrosis, and plant stunting (if evident) in the treated rows compared to the respective unsprayed control rows. Rating data at 7 and 14 days after spraying were subject to ANOVA and mean separation using SAS.

[4] = system: Untransformed Coker 312 cotton plants; experiment: Greenhouse over-the-top herbicide spray of cotton; assay type: in vivo, Gossypium hirsutum
Description: (§3) Cotton (Gossypium hirsutum) Coker 312 was transformed with a GAT polynucleotide (gat 4621) together with an Hra polynucleotide (SEQ ID NO:86) both operably linked to strong, constitutive plant viral promoters. The promoter linked to gat4621 contains a duplicated portion of the Strawberry Vein Banding Virus transcript promoter (Wang et al. Virus Genes 20: 11-17, 2000; Genbank X97304). The Hra gene was driven by a duplicated portion of the Mirabilis Mosaic Caulimovirus full-length transcript promoter (U.S. Pat. No. 6,420,547; Dey and Maiti, Transgenics 3:61-70, 1999). The transformation procedure used Agrobacterium tumefaciens containing an expression cassette with the genes to be transferred and cotyledon explant derived callus with some capacity to undergo embryogenesis. The callus was exposed to Agrobacterium for 48-72 hours. The callus was then exposed to selection for transformed cells on 50-200 μg/l chlorosulfuron and/or 50-450 μM glyphosate in solid medium. Glyphosate can also be used in a concentration range of about 5 to about 450 μM. Selection was applied until somatic embryos formed, and selection was again applied at the embryo germination step, and optionally during rooting of plantlets. Over 450 GAT-HRA transformation events were produced using selection with both chlorsulfuron and glyphosate.
(§4) Transformed cotton plants were rooted and then transferred to soil for further growth. Plants were then subjected to herbicide spray treatments in a greenhouse. […] Untransformed Coker 312 control plants were dead 2 weeks after glyphosate application. […] Plants transformed with both GAT and HRA were further subjected to an “over the top” application of the sulfonylurea herbicide rimsulfuron at a rate of 16 g active ingredient/hectare. […] In further experiments 32 g ai/ha rimsulfuron were applied to the cotton.

[5] = system: Soybeans comprising the lead GAT7 event and also having HRA; experiment: Greenhouse test confirming the field trial (Example 6B); assay type: in vivo, soybean; conditions: GAT/HRA Soybeans
Description: Example 6B provides greenhouse data that confirms the field trial data provided above in Example 6A. Soybeans comprising the lead GAT7 event and also having HRA were used in the studies.

[6] = system: Parent elite stiff stalk inbred corn; experiment: Postemergence herbicide application to potted corn (fresh weight, visual injury); assay type: in vivo; conditions: 3472 g ae/ha
[7] = system: Heterozygous GAT-HRA corn; experiment: as above; assay type: in vivo; conditions: 3472 g ae/ha
[8] = system: GAT-HRA transgenic cotton plants; experiment: Greenhouse over-the-top herbicide spray of cotton; assay type: in vivo, Gossypium hirsutum; conditions: glyphosate 1.5 lb acid equivalent per acre; 14 days after application
Description: as §3, §4

[9] = system: non-transformed GS3 embryos; experiment: Glyphosate kill curve; assay type: cell-based, maize; conditions: about 40 days culture
Description: (§5) A glyphosate kill curve was established by testing non-transformed embryos response on media with different levels of glyphosate. GS3 embryos were isolated from an immature ear and placed onto media containing glyphosate at 0.0, 0.5, 1.0, and 2.0 mM. After about 40 days culture, the response of the embryos were observed and recorded. Similarly, infected GS3 embryos with the GAT construct were placed onto media containing glyphosate at 0.0, 0.5, 1.0, and 2.0 mM. After about 40 days culture, the response of the infected embryos were observed and recorded (FIG. 7).

[10] = system: infected GS3 embryos with the GAT construct; experiment: Glyphosate selection of infected embryos; assay type: cell-based, maize; conditions: 1.0 mM or 2.0 mM glyphosate in medium; about 40 days culture
Description: as §5

[11] = system: non-glyphosate resistant ryegrass; experiment: Control of ryegrass by glyphosate, metsulfuron-methyl and two additives; assay type: in vivo; conditions: 0.5 L ha-1 glyphosate (SCAT) alone
Description: The example was conducted on non-glyphosate resistant ryegrass. As provided in Table 23, all treatments that included glyphosate [180 g a.i. L ha^−1 (0.5 L glyphosate (SCAT®))] plus metsulfuron-methyl (BRUSH-OFFS®) (5 and 10 g ha^−1) gave 100% control of the ryegrass.

[12] = system: Hairy Fleabane (Conyza bonariensis), glyphosate sensitive biotype; experiment: Control of hairy fleabane by glyphosate, metsulfuron-methyl and two additives; assay type: in vivo; conditions: glyphosate on its own
Description: This example included the same treatments as used in Example 11, except the treatments were carried out on a glyphosate sensitive biotype of Kleinskraalhans (Conyza bonariensis).

[13] = system: Glyphosate, Paraquat, and ACCase-Inhibitor Resistant Ryegrass; experiment: Control of resistant ryegrass by glyphosate and representative SU's; assay type: in vivo; conditions: glyphosate (SCAT) only or plus an SU
Description: In this example, four different SU's were applied together with glyphosate (SCAT®) on the resistant ryegrass. The results as to the best SU partner for glyphosate were inconclusive, but the average benefit of applying an SU with glyphosate on herbicide resistant ryegrass was 39% (e.g., 34% control with glyphosate (SCAT®) only and 57-83% control with glyphosate (SCAT®) plus metsulfuron-methyl (BRUSH-OFF®), chlorsulfuron (GLEAN®), or triasulfuron (LOGRAN(®)).

Row | SMILES | damage [1] | damage [2] | spray damage of the 4 GAT events compared to Jack and STS [3] | damage from the application ([4]; 16 g active ingredient/hectare, in the absence of glyphosate) | % Growth Reduction ([5]; Rimsulfuron 35 + Imazethapyr 0 g ai/ha, Treatment # 6) | % Growth Reduction ([5]; Rimsulfuron 70 + Imazethapyr 0 g ai/ha, Treatment # 11) | Fresh Weight ([6]; weighed 2 weeks after treatment, untreated 76.4 g) | % visual injury to corn at 3472 g/ha ([6]; Zea mays, post-emergence) | Fresh Weight ([7]; weighed 2 weeks after treatment, untreated 98.8 g) | Visual crop injury (%) at 3472 g/ha ([7]; Zea mays, post-emergence) | transgenic plants with no deleterious symptoms [8] | state of plants after application ([4]; 1.5 lb acid equivalent per acre, 4-6 leaf stage, 2 weeks after application) | callus initiation ([9]; 0.5 mM glyphosate in medium) | callus growth ([9]; 1.0 and 2.0 mM glyphosate in medium) | resistant callus initiation [10] | plants that eventually died [11] | plants killed [12] | control [13]
1 | COC(=O)c1ccccc1S(=O)(=O)NC(=O)N(C)c1nc(C)nc(OC)n1 [Tribenuron-methyl, methyl 2-[[[[N-(4-methoxy-6-methyl-1,3,5-triazin-2-yl)-N-methylamino]carbonyl]-amino]sulfonyl]benzoate] | no significant damage | killed | significantly less visual damage compared to STS and Jack | – | – | – | – | – | – | – | – | – | – | – | – | – | – | –
2 | CCS(=O)(=O)c1cccnc1S(=O)(=O)NC(=O)Nc1nc(OC)cc(OC)n1 [Rimsulfuron, N-[[(4,6-dimethoxy-2-pyrimidinyl)amino]carbonyl]-3-(ethylsulfonyl)-2-pyridinesulfonamide] | – | – | significantly less spray damage compared to Jack and STS | severe damage | 67% | 73% | – | – | – | – | – | – | – | – | – | – | – | –
3 | O=C(O)CNCP(=O)(O)O [Glyphosate, N-phosphonomethylglycine] | – | – | – | – | – | – | 1.0 g | 100% | 97.4 g | 10% | approximately 50% | dead | about half of the embryos | very little callus growth | some embryos initiated resistant callus | 15 of the 16 plants (12%) | 1 out of 16 plants (12%) | 34%
